Measured values reported in PubChem BioAssay AID2060889 (Molecular Pharmacology Branch, DTP, NCI, 2025).

Tested on: LG0567-F671-PDC complex spheroids viability
Test: Anticancer human tumor LG0567-F671-PDC patient-derived lung adenocarcinoma cell line growth inhibition [RAS]
Conditions: for IC50: curve of first compound; for viability, T/C: stronger effect = lower value
In short: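 Multi-cell-type spheroids: tumor cells plus HUVEC endothelial cells and mesenchymal stem cells. RAS-pathway inhibitors were combined with targeted agents, each dosed in half-log steps down from clinical Cmax, or from 10 microM when Cmax was unknown.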

[1] = second compound 0.000949 µM, first compound 0.0316 µM
[2] = second compound 0.000949 µM, first compound 0.1 µM
[3] = second compound 0.000949 µM, first compound 0.316 µM
[4] = second compound 0.000949 µM, first compound 1 µM
[5] = second compound 0.003 µM, first compound 0.0316 µM
[6] = second compound 0.003 µM, first compound 0.1 µM
[7] = second compound 0.003 µM, first compound 0.316 µM
[8] = second compound 0.003 µM, first compound 1 µM
[9] = second compound 0.00949 µM, first compound 0.0316 µM
[10] = second compound 0.00949 µM, first compound 0.1 µM
[11] = second compound 0.00949 µM, first compound 0.316 µM
[12] = second compound 0.00949 µM, first compound 1 µM
[13] = second compound 0.03 µM, first compound 0.0316 µM
[14] = second compound 0.03 µM, first compound 0.1 µM
[15] = second compound 0.03 µM, first compound 0.316 µM
[16] = second compound 0.03 µM, first compound 1 µM
[17] = second compound 0.0949 µM, first compound 0.0316 µM
[18] = second compound 0.0949 µM, first compound 0.1 µM
[19] = second compound 0.0949 µM, first compound 0.316 µM
[20] = second compound 0.0949 µM, first compound 1 µM
[21] = second compound 0.3 µM, first compound 0.0316 µM
[22] = second compound 0.3 µM, first compound 0.1 µM
[23] = second compound 0.3 µM, first compound 0.316 µM
[24] = second compound 0.3 µM, first compound 1 µM
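Further: spheroids exposed to compound for seven days before readout.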
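Wherever IC50 is given: luminescence signal used as a proxy for viable cells.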

With `CC(=O)OC12COC1CC(O)C1(C)C(=O)C(O)C3=C(C)C(OC(=O)C(O)C(NC(=O)OC(C)(C)C)c4ccccc4)CC(O)(C(OC(=O)c4ccccc4)C21)C3(C)C` (centres undefined) + CCn1c(-c2cccnc2C(C)OC)c2c3cc(ccc31)N1CCOC(CC(NC(=O)C(C(C)C)N(C)C(=O)C3(F)CCN(C(=O)C#CC(C)(C)N(C)C)CC3)C(=O)N3CCCC(N3)C(=O)OCC(C)(C)C2)C1 the IC50 (second compound 0.000949 µM) was < 31.6 nM, the IC50 (second compound 0.003 µM) was < 31.6 nM and the IC50 (second compound 0.00949 µM) was < 31.6 nM. The IC50 (second compound 0.03 µM) was < 31.6 nM, the IC50 (second compound 0.0949 µM) was < 31.6 nM and the IC50 (second compound 0.3 µM) was < 31.6 nM. For the same molecule, the viability, T/C [1] was 12.9%, the viability, T/C [2] was 10.5% and the viability, T/C [3] was 11%. The viability, T/C [4] was 11.9%, the viability, T/C (second compound 0.000949 µM, first compound 3.16 µM) was 11.6% and the viability, T/C (second compound 0.000949 µM, first compound 10 µM) was 8.54%. It also gave a viability, T/C [5] of 13.3%, a viability, T/C [6] of 11.5% and a viability, T/C [7] of 11.2%. The viability, T/C [8] was 11.5%, the viability, T/C (second compound 0.003 µM, first compound 3.16 µM) was 11.5% and the viability, T/C (second compound 0.003 µM, first compound 10 µM) was 9.41%. For the same molecule, the viability, T/C [9] was 11.1%, the viability, T/C [10] was 10.2% and the viability, T/C [11] was 12.1%. It also gave a viability, T/C [12] of 10.1%, a viability, T/C (second compound 0.00949 µM, first compound 3.16 µM) of 11.2% and a viability, T/C (second compound 0.00949 µM, first compound 10 µM) of 8.58%. For the same molecule, the viability, T/C [13] was 10.2%, the viability, T/C [14] was 10.9% and the viability, T/C [15] was 10.7%. For the same molecule, the viability, T/C [16] was 9.38%, the viability, T/C (second compound 0.03 µM, first compound 3.16 µM) was 10.1% and the viability, T/C (second compound 0.03 µM, first compound 10 µM) was 7.46%. The viability, T/C [17] was 8.76%, the viability, T/C [18] was 7.61% and the viability, T/C [19] was 8.1%. It also gave a viability, T/C [20] of 9.57%, a viability, T/C (second compound 0.0949 µM, first compound 3.16 µM) of 8.69% and a viability, T/C (second compound 0.0949 µM, first compound 10 µM) of 6.64%. It also gave a viability, T/C [21] of 7.24%, a viability, T/C [22] of 6.04% and a viability, T/C [23] of 6.63%. The viability, T/C [24] was 6.97%, the viability, T/C (second compound 0.3 µM, first compound 3.16 µM) was 7.51% and the viability, T/C (second compound 0.3 µM, first compound 10 µM) was 5.29%.
In the case of `Nc1ccn(C2OC(CO)C(O)C2(F)F)c(=O)n1` (centres undefined) + CCn1c(-c2cccnc2C(C)OC)c2c3cc(ccc31)N1CCOC(CC(NC(=O)C(C(C)C)N(C)C(=O)C3(F)CCN(C(=O)C#CC(C)(C)N(C)C)CC3)C(=O)N3CCCC(N3)C(=O)OCC(C)(C)C2)C1, the IC50 (second compound 0.000949 µM) is reported as < 3.16 nM, the IC50 (second compound 0.003 µM) is reported as < 3.16 nM and the IC50 (second compound 0.00949 µM) is reported as < 3.16 nM. The IC50 (second compound 0.03 µM) was < 3.16 nM, the IC50 (second compound 0.0949 µM) was < 3.16 nM and the IC50 (second compound 0.3 µM) was < 3.16 nM. The viability, T/C (second compound 0.000949 µM, first compound 0.00316 µM) was 15.8%, the viability, T/C (second compound 0.000949 µM, first compound 0.01 µM) was 15.7% and the viability, T/C [1] was 14.1%. For the same molecule, the viability, T/C [2] was 14.4%, the viability, T/C [3] was 15.3% and the viability, T/C [4] was 13.8%. It also gave a viability, T/C (second compound 0.003 µM, first compound 0.00316 µM) of 15.6%, a viability, T/C (second compound 0.003 µM, first compound 0.01 µM) of 15.7% and a viability, T/C [5] of 13.5%. For the same molecule, the viability, T/C [6] was 14.8%, the viability, T/C [7] was 15.6% and the viability, T/C [8] was 11.7%. For the same molecule, the viability, T/C (second compound 0.00949 µM, first compound 0.00316 µM) was 12.5%, the viability, T/C (second compound 0.00949 µM, first compound 0.01 µM) was 14.3% and the viability, T/C [9] was 13.6%. The viability, T/C [10] was 13.2%, the viability, T/C [11] was 14.1% and the viability, T/C [12] was 14.1%. It also gave a viability, T/C (second compound 0.03 µM, first compound 0.00316 µM) of 12.3%, a viability, T/C (second compound 0.03 µM, first compound 0.01 µM) of 13.7% and a viability, T/C [13] of 13.8%. For the same molecule, the viability, T/C [14] was 15%, the viability, T/C [15] was 14% and the viability, T/C [16] was 13%. For the same molecule, the viability, T/C (second compound 0.0949 µM, first compound 0.00316 µM) was 11.1%, the viability, T/C (second compound 0.0949 µM, first compound 0.01 µM) was 10.2% and the viability, T/C [17] was 11.4%. It also gave a viability, T/C [18] of 10.1%, a viability, T/C [19] of 12.1% and a viability, T/C [20] of 11.6%. It also gave a viability, T/C (second compound 0.3 µM, first compound 0.00316 µM) of 10.6%, a viability, T/C (second compound 0.3 µM, first compound 0.01 µM) of 11.3% and a viability, T/C [21] of 9.37%. It also gave a viability, T/C [22] of 9.44%, a viability, T/C [23] of 9.59% and a viability, T/C [24] of 10%.
